Consider `Cn1nccc1-c1nc(Cl)nc2ccsc12` [Example 182, 2-chloro-4-(1-methyl-1H-pyrazol-5-yl)thieno[3,2-d]pyrimidine], for which the melting point lay in the range of 141 to 142 °C.
The molecule `Clc1nc(-c2ccsc2)c2sccc2n1` [Example 156, 2-chloro-4-(3-thienyl)thieno[3,2-d]pyrimidine] came in with a melting point of 117.7 to 118.2 °C.
Turning to `NC(=O)c1nc(-c2ccco2)c2sccc2n1` [Example 155, 4-(2-furyl)thieno[3,2-d]pyrimidine-2-carboxamide], the melting point was 300 °C (dec.).
In turn, `CN(C)c1nc(-c2cnn(COCC[Si](C)(C)C)c2)c2sccc2n1` displayed a melting point of 60 to 61 °C.
Then `c1coc(-c2nc(Cc3cccs3)nc3ccsc23)c1` [Example 117, 4-(2-furyl)-2-(2-thienylmethyl)thieno[3,2-d]pyrimidine], with 149 °C.
The figure for `Clc1nc(-c2ccccn2)c2sccc2n1` [Example 24, 2-chloro-4-(2-pyridyl)thieno[3,2-d]pyrimidine] is 209.2 to 209.5 °C; for `c1csc(-c2nc(-c3nccs3)c3sccc3n2)c1` [Example 153, 4-(2-thiazolyl)-2-(2-thienyl)thieno[3,2-d]pyrimidine] it is 221.9 °C; for `CN(C)c1nc(-c2nccn2COCC[Si](C)(C)C)c2sccc2n1` it is 131 to 132 °C.
Regarding `OCCNc1nc(-c2cc3ccccc3s2)c2sccc2n1` [Example 20, 4-(2-benzothiophenyl)-N-(2-hydroxyethyl)thieno[3,2-d]pyrimidine-2-amine], the melting point was in the range of 173.4 to 174.4 °C.
In turn, `CN(C)c1nc(-c2ccco2)c2scc(Br)c2n1` [Example 22, 7-bromo-N,N-dimethyl-4-(2-furyl)thieno[3,2-d]pyrimidine-2-amine] yielded a melting point of 118.7 to 119.5 °C.
The molecule `C=CCNc1nc(-c2nccs2)c2sccc2n1` [Example 112, N-allyl-4-(2-thiazolyl)thieno[3,2-d]pyrimidine-2-amine] gave a melting point of 128 to 129 °C.
Then `OC[C@H]1CCCN1c1nc(-c2ccco2)c2sccc2n1` [Example 38, (2R)-4-(2-furyl)-2-(2-hydroxymethylpyrrolidin-1-yl)thieno[3,2-d]pyrimidine], with 109 to 110 °C; and `Clc1nc(-c2cc3ccccc3s2)c2sccc2n1` [Example 17, 4-(2-benzothiophenyl)-2-chlorothieno[3,2-d]pyrimidine], with 231 to 231.6 °C.
The figure for `Cc1csc2c(-c3ccco3)nc(NCCO)nc12` [Example 16, 4-(2-furyl)-N-(2-hydroxyethyl)-7-methylthieno[3,2-d]pyrimidine-2-amine] is 149.9 to 150.6 °C; for `O=[N+]([O-])c1cc2nc(Cl)nc(-c3ccco3)c2s1` [Example 162, 2-chloro-4-(2-furyl)-6-nitrothieno[3,2-d]pyrimidine] it is 204 to 204.9 °C; for `Cc1ccc(-c2nc(Cl)nc3ccsc23)nc1` [Example 109, 2-chloro-4-(5-methyl-2-pyridyl)thieno[3,2-d]pyrimidine] it is 221 to 222 °C.
The molecule `CC(=O)CC(=O)N(C)c1nc(-c2ccco2)c2sccc2n1` [Example 60, N-(4-(2-furyl)thieno[3,2-d]pyrimidine-2-yl)-N-methyl-3-oxobutanamide] had a melting point of 108.3 to 108.6 °C.
Then `C[Si](C)(C)CCOCn1cc(-c2nc(Cl)nc3ccsc23)cn1`, with 108 to 109 °C; and `CCc1nc(-c2nc(CC)nc3ccsc23)c2sccc2n1` [Example 119, 2-ethyl-4-(2-ethylthieno[3,2-d]pyrimidin-4-yl)thieno[3,2-d]pyrimidine], with 179 °C.
In the case of `CN(C)c1nc(-c2ccccc2)c2sccc2n1` [Example 159, N,N-dimethyl-4-phenylthieno[3,2-d]pyrimidine-2-amine], the melting point lay within 112.9 to 114.1 °C.
For the molecule `CN(C)c1nc(-c2ccco2)c2scc(NC(=O)c3ccccc3)c2n1` [Example 57, N-(2-dimethylamino-4-(2-furyl)thieno[3,2-d]pyrimidine-7-yl)benzamide], the melting point is 192.2 to 192.8 °C.
`CCc1nc(-c2ccco2)c2sc(C)cc2n1` [Example 188, 2-ethyl-4-(2-furyl)-6-methylthieno[3,2-d]pyrimidine] displayed a melting point of 104.7 to 104.8 °C.
Then `COc1ccc(CNc2nc(-c3nccs3)c3sccc3n2)cc1OC` [Example 108, N-(3,4-dimethoxybenzyl)-4-(2-thiazolyl)thieno[3,2-d]pyrimidine-2-amine], with 178.7 to 179.5 °C; and `CCc1nc(-c2nccn2COC)c2sccc2n1` [Example 179, 2-ethyl-4-(1-methoxymethyl-1H-imidazol-2-yl)thieno[3,2-d]pyrimidine], with 69 to 70 °C.
As to `Clc1nc(-c2ccco2)c2sccc2n1` [Example 3, 2-chloro-4-(2-furyl)thieno[3,2-d]pyrimidine], the melting point fell in the range of 146.9 to 147.6 °C.
Then `Clc1nc(-c2ccccc2)c2sccc2n1` [Example 158, 2-chloro-4-phenylthieno[3,2-d]pyrimidine], with 146.5 to 147.2 °C.
Then `CC(=O)Nc1nc(-c2ccco2)c2sccc2n1` [Example 101, N-(4-(2-furyl)thieno[3,2-d]pyrimidin-2-yl)acetamide], with 193.9 to 195 °C; and `CN(C)c1nc(-c2ccco2)c2scc([N+](=O)[O-])c2n1` [Example 44, N,N-dimethyl-4-(2-furyl)-7-nitrothieno[3,2-d]pyrimidine-2-amine], with 182.8 to 183.8 °C; and `CC(=O)Nc1nc(-c2nccs2)c2sccc2n1` [Example 116, N-(4-(2-thiazolyl)thieno[3,2-d]pyrimidin-2-yl)acetamide], with 242.6 to 243.9 °C.
With `CCc1nc(-c2ncc(-c3ccccc3)o2)c2sccc2n1` [Example 106, 2-ethyl-4-(5-phenyl-2-oxazolyl)thieno[3,2-d]pyrimidine], the melting point was in the range of 170 to 170.5 °C.
Then `CN(C)c1nc(-c2nccn2CCO)c2sccc2n1` [Example 178, N,N-dimethyl-4-(1-(2-hydroxyethyl)-1H-imidazol-2-yl)thieno[3,2-d]pyrimidine-2-amine], with 162.2 to 164.9 °C; and `Cc1csc2c(-c3ccco3)nc(Cl)nc12` [Example 12, 2-chloro-4-(2-furyl)-7-methylthieno[3,2-d]pyrimidine], with 164.4 to 164.9 °C; and `COc1ccc(CNc2nc(-c3ccco3)c3sccc3n2)cc1OC` [Example 78, N-(3,4-dimethoxybenzyl)-4-(2-furyl)thieno[3,2-d]pyrimidine-2-amine], with 155 to 156 °C.
The figure for `CN(C)c1nc(-c2cnn(C)c2)c2sccc2n1` [Example 186, N,N-dimethyl-4-(1-methyl-1H-pyrazol-4-yl)thieno[3,2-d]pyrimidine-2-amine] is 175.4 to 175.9 °C; for `CCOC(=O)Cn1ccnc1-c1nc(N(C)C)nc2ccsc12` [Example 177, N,N-dimethyl-4-((1-ethoxycarbonylmethyl)-1H-imidazol-2-yl)thieno[3,2-d]pyrimidine-2-amine] it is 209 to 210 °C.
The figure for `CN(C)c1nc(-c2ccco2)c2scc(N)c2n1` [Example 51, 7-amino-N,N-dimethyl-4-(2-furyl)thieno[3,2-d]pyrimidine-2-amine] is 145.8 to 146.5 °C.
The molecule `CCSc1nc(-c2ccco2)c2sccc2n1` [Example 37, 2-ethylthio-4-(2-furyl)thieno[3,2-d]pyrimidine] came in with a melting point of 207 to 208 °C.
On to `CCc1nc(-c2nncn2C)c2sccc2n1` [Example 187, 2-ethyl-4-(4-methyl-4H-1,2,4-triazol-3-yl)thieno[3,2-d]pyrimidine], for which the melting point lay in the range of 110.2 to 111.4 °C.
`FC(F)(F)c1nc(-c2ccco2)c2sccc2n1` [Example 11, 4-(2-furyl)-2-trifluoromethylthieno[3,2-d]pyrimidine] had a melting point of 147.6 to 148.8 °C.
In the case of `OCCNc1nc(-c2cnccn2)c2sccc2n1` [Example 34, N-(2-hydroxyethyl)-4-(2-pyrazinyl)thieno[3,2-d]pyrimidine-2-amine], the melting point lay in the range of 191.5 to 192.4 °C.
Then `OC[C@H]1CCCN1c1nc(-c2cccs2)c2sccc2n1` [Example 4, (2R)-2-(2-hydroxymethylpyrrolidin-1-yl)-4-(2-thienyl)thieno[3,2-d]pyrimidine], with 128.5 to 128.9 °C.
The figure for `CS(=O)(=O)Nc1csc2c(-c3ccco3)nc(Cl)nc12` [Example 59, N-(2-chloro-4-(2-furyl)thieno[3,2-d]pyrimidine-7-yl)methanesulphonamide] is 211.9 °C.
The molecule `CN(C)c1nc(-c2ccnn2C)c2sccc2n1` [Example 184, N,N-dimethyl-4-(1-methyl-1H-pyrazol-5-yl)thieno[3,2-d]pyrimidine-2-amine] had a melting point of 126.5 to 127 °C.
In the case of `Cc1cnc(-c2nc(Cl)nc3ccsc23)s1` [Example 102, 2-chloro-4-(5-methyl-2-thiazolyl)thieno[3,2-d]pyrimidine], the melting point fell in the range of 243 to 244 °C.
`CCc1nc(-c2nncn2COCC[Si](C)(C)C)c2sccc2n1` had a melting point of less than 100 °C.
The figure for `CC(=O)Nc1csc2c(-c3ccco3)nc(N(C)C)nc12` [Example 56, N-(2-dimethylamino-4-(2-furyl)thieno[3,2-d]pyrimidine-7-yl)acetamide] is 210.9 to 211.3 °C; for `CN(C)c1nc(-c2ccco2)c2scc(NC(=O)Nc3ccccc3)c2n1` [Example 55, N-(2-dimethylamino-4-(2-furyl)thieno[3,2-d]pyrimidine-7-yl)-N′-phenylurea] it is 244.4 to 244.9 °C.
As to `CCc1nc(-c2nc3ccccc3s2)c2sccc2n1` [Example 122, 4-(2-benzothiazolyl)-2-ethylthieno[3,2-d]pyrimidine], the melting point is 131 °C.
`OC[C@H]1CCCN1c1nc(-c2ccco2)c2scc(Br)c2n1` [Example 72, (2R)-7-bromo-4-(2-furyl)-2-(2-hydroxymethylpyrrolidin-1-yl)thieno[3,2-d]pyrimidine] gave a melting point of 75.4 to 76.3 °C.

For the origin of these results see patent US7384949B2, “Thieno(3,2-d)pyrimidines and furano(3,2-d)pyrimidines and their use as purinergic receptor antagonists” (Vernalis Research Limited, priority 2001, dated 2008).
